Measured values from paper PMC11384084 (Journal of Traditional and Complementary Medicine, 2024).
“Also recorded” adds a separate entry of the source. Like-named read-outs stand apart in the source and are kept apart here.

Experiments:
[1] = tested on: healthy men; assay: Safety laboratory values, baseline vs end of two-week study; assay type: in vivo, human
Text: Safety was compared to evaluate the number, frequency, duration, and relationship of toxicity events to CURC and UA, as defined by the Common Terminology Criteria for Adverse Events (CTCAE) v. […] The secondary outcomes included the measured plasma levels of UA, CURC, and selected metabolites. We also investigated the impact on the microbiome in a paired analysis for changes and the overall theme of imputed bacterial function.
Demographics between groups were compared using Fisher's exact test for categorical variables and Student's t-test for continuous variables. Laboratory safety values were analyzed using a paired t-test for differences, with significance set at p < 0.05. ANOVA was used to compare the plasma levels of UA, CURC, and CURC metabolites. Least significant difference (LSD) was used as the post-hoc analysis test to compare values between groups.
Laboratory analysis was performed at baseline and at the end of the two-week study. We then subtracted the values (week 2: baseline) to obtain the differences for each participant. […] Chronic kidney disease (CKD) is based on glomerulary filtration rate (GFR), and CKD stage 3 starts at a value below 60. […] Bicarbonate can be harmful if large changes occur in either direction, but clinicians are usually concerned about metabolic acidosis.

[2] = Human microsomal metabolism of UA alone or with CURC; assay type: in vitro ADME; conditions: UA 4 μM, HLM, NADPH, 37 °C
Protocol: The respective stock solutions were further diluted using MeOH to prepare calibration curve standards and working solutions. The diluent was prepared by spiking the IS (C-d6 and BA) in 100% MeOH to obtain a concentration of 100 ng/mL. The solutions were stored at −20 °C before use. […] Aliquots of 30 μL were collected at different time points, and the reaction was terminated by adding 120 μL of the diluent. Finally, the collected samples were vigorously vortexed, centrifuged for 10 min at 4 °C and 50 μL of the clear supernatant was transferred to LC-MS vials for analysis. UHPLC–MS analysis was performed using a Thermo Scientific Vanquish UHPLC system coupled with an Orbitrap IQ-X Tribrid mass spectrometer with an electrospray ionization (ESI) interface. […] The H-ESI interface was operated in negative ion mode with interface ion transfer tube temperature 320 °C, vaporizing temperature 250 °C, sheath gas 45 Arb, auxiliary gas 10 Arb, sweep gas 2 Arb, and detector voltage 3.5 kV. […] Data processing was performed using the Thermo Scientific Freestyle software (1.8. SP2 version).

[3] = tested on: healthy men; assay: Phase 1 clinical trial safety evaluation, adverse events by CTCAE v4.03; assay type: in vivo, human; conditions: for Relationship To Study Treatment / Toxicity Grade (CTCAE v4.0): per event; for Relationship To Study Treatment / Toxicity Grade (CTCAE v4.0) / Event (adverse event term): 2 weeks oral; for Toxicity Grade (CTCAE v4.0) / Adverse Event (Yes/No) / Event (adverse event term): UA 300 mg/day, CURC 1200 mg/day; for Adverse Event (Yes/No) / Event (adverse event term): per subject; for Adverse Event (Yes/No): 2 weeks oral lipid capsules
Text: We performed a standard 3 × 3 phase 1 design based on the safety evaluation of UA and CURC tested individually and then in combination (Study Schema in Supplemental Fig. 1). We modified the 3 × 3 design to include any toxicities because we selected the maximum dose due to the reported safety of large doses of these compounds. We enrolled subjects for a 2-week study period and used paired samples for individualized comparisons and pooled results for group comparisons.
We recruited healthy men enrolled in the San Antonio Biomarkers of Risk (SABOR) study, a community-based prostate cancer screening cohort. The San Antonio Biomarkers of Risk (SABOR) study cohort was funded by the 10.13039/100000054National Cancer Institute Early Detection Research Network-sponsored Clinical and Epidemiologic Validation Center since its nascent enrollment in 2000 (IRB# HSC20000030H). A separate IRB was approved for the Phase 1 trial (IRB# HSC20190940H). The participants had no prior diagnosis of prostate cancer at the time of enrollment and had varied prostate cancer risk profiles. We used data from the local UT Health San Antonio Data Safety and Monitoring Board (DSMB).
Safety was compared to evaluate the number, frequency, duration, and relationship of toxicity events to CURC and UA, as defined by the Common Terminology Criteria for Adverse Events (CTCAE) v. 4.03. The secondary outcomes included the measured plasma levels of UA, CURC, and selected metabolites. We also investigated the impact on the microbiome in a paired analysis for changes and the overall theme of imputed bacterial function.

[4] = Peak plasma levels (Cmax) of compounds and metabolites on day 14 by UHPLC-MS/MS; assay type: in vivo, human; conditions: for Cmax: male, human, plasma, 2 weeks, read-out: UA plasma level, median (Cmax day 14)
Protocol: The compounds and their metabolites were measured using a UHPLC-MS/MS system on a Hybrid quadrupole-Orbitrap mass spectrometer (Q Exactive, Thermo Scientific, Waltham, MA, USA) hyphenated with a Thermo Scientific Vanquish Flex ultrahigh-pressure liquid chromatography (UHPLC) system via an electrospray ionization source. For the parallel reaction monitoring (PRM) scan, the resolution, automatic gain control (AGC) target, and maximum injection time (IT) were set at 17500, 2e5, and 100 ms, respectively. The NCE values for each metabolite were individually set, and the details are provided in Supplemental Table 1. The All-Ion Fragmentation (AIF) scan consisted of a scan range of m/z 100–750 with an NCE of 10. The resolution, AGC target, and maximum IT for the AIF scan were set at […], and 200 ms, respectively. More details regarding the preparation and calibration are provided in the Supplementary Methods section.

[5] = week 2 minus baseline, n = 6 per group
[6] = Musculoskeletal domain adverse event
[7] = Nervous system domain adverse event
[8] = adverse event Creatinine increased
[9] = CURC alone group, 1200 mg/day oral, day 14
[10] = combination group (CurcUA), day 14

Row | Structure (SMILES) | Difference in ALT, median (IQR) [1, 5] | Difference in AST, median (IQR) [1, 5] | Difference in Albumin, median (IQR) [1, 5] | Difference in Alkaline Phosphatase, median (IQR) [1, 5] | Difference in Bicarbonate, median (IQR) [1, 5] | Difference in Bilirubin, median (IQR) [1, 5] | Difference in Calcium, median (IQR) [1, 5] | Difference in Chloride, median (IQR) [1, 5] | Difference in Creatinine, median (IQR) [1, 5] | Difference in Hematocrit, median (IQR) [1, 5] | Difference in Hemoglobin, median (IQR) [1, 5] | Difference in Platelets, median (IQR) [1, 5] | Difference in Sodium, median (IQR) [1, 5] | Difference in White blood cell (WBC), median (IQR) [1, 5] | Adverse Event (Yes/No) [3] | other results
1 | C[C@H]1[C@H](C)CC[C@]2(C(=O)O)CC[C@]3(C)C(=CC[C@@H]4[C@@]5(C)CC[C@H](O)C(C)(C)[C@@H]5CC[C@]43C)[C@H]12 [Ursolic Acid, ursolic acid] | 1.5 (1.0–12.8) | 2.0 (−1.3 to 3.3) | 0.0 (−0.1 to 0.2) | 2.5 (−2.5 to 5.0) | 1.0 (−1.5 to 3.0) | 0.0 (−0.08 to 0.15) | 0.03 (−0.05 to 0.48) | −1.0 (−2.75 to 1.75) | −0.08 (−0.33 to 0.12) | 1.55 (−0.85 to 2.85) | 0.20 (−0.33 to 0.58) | 9.5 (2.5–27) | 0.5 (−1.5 to 2.25) | 0.20 (−0.23 to 0.85) | No and Yes | UA remaining at 40 min ([2]; UA-only incubations): 47%; UA remaining at 40 min ([2]; ratio 1:4 (UA: CURC)): 73%; Number of low-grade gastrointestinal (GI)-related complaints attributed ([3]; CTCAE v4.03, n): 3; Relationship To Study Treatment [3]: Unlikely; Toxicity Grade (CTCAE v4.0) [3, 6]: 1; Toxicity Grade (CTCAE v4.0) [3, 7]: 2; Event (adverse event term) [3, 6]: Joint pain; Event (adverse event term) [3, 7]: Vasovagal Reaction; also recorded: Pre-syncope; Cmax ([4]; UA alone group, UA 300 mg/day oral): 2.7 ng/mL; Cmax ([4]; combination group (CurcUA), UA 300 mg/day + CURC 1200 mg/day oral): 43.8 ng/mL; Increase of UA plasma levels, combination vs UA alone ([4]; median 2.7 to 43.8 ng/mL): 16 fold
2 | COc1cc(/C=C/C(=O)CC(=O)/C=C/c2ccc(O)c(OC)c2)ccc1O [Curcumin, curcumin] | −1.0 (−3.25 to 0.0) | 2.0 (−2.0 to 3.3) | 0.05 (−0.05 to 0.2) | −2.0 (−5.5 to 9.3) | −1.5 (−4.3 to 0.0) | −0.1 (−0.3 to 0.0) | 0.2 (−0.15 to 0.32) | −0.5 (−1.3 to 0.8) | 0.07 (−0.07 to 0.16) | 0.25 (−1.45 to 2.35) | 0.20 (−0.30 to 0.55) | 7.0 (−5 to 31.5) | 0.0 (−1.5 to 1.0) | 0.15 (−0.43 to 0.68) | No and Yes | GFR after 2 weeks, individual participant ([1]; baseline GFR 45 (CURC arm participant), 76 (CurcUA participant)): 46; Creatinine after treatment in subject with event 'Creatinine increased' (Comments) ([1]; individual subjects, baselines 1.10, 1.0, 1.13): Creatine increased from 1.10 to 1.24; also recorded: Creatine increased from 1.0 to 1.21; Difference in Glomerular Filtration Rate (GFR), median (IQR) [1, 5]: −5.5 (−12.0 to 4.5); Toxicity Grade (CTCAE v4.0) ([3]; adverse event Bloating): 2; Toxicity Grade (CTCAE v4.0) [3, 8]: 1; Relationship To Study Treatment [3, 8]: Unlikely; Relationship To Study Treatment ([3]; adverse event Diarrhea): Possible; Event (adverse event term) ([3]; adverse event Bloating): Bloating; Event (adverse event term) [3, 8]: Creatinine increased; Event (adverse event term) ([3]; adverse event Diarrhea): Diarrhea; Event (adverse event term) ([3]; adverse event Flatulence): Flatulence; CURC parent compound plasma level, median [4, 9]: 0.42 ng/mL; Highest plasma level of CURC [4, 9]: 0.52 ng/mL; CURC plasma level, median [4, 10]: 0.0 ng/mL
3 | COc1cc(/C=C/C(=O)CC(=O)/C=C/c2ccc(O[C@@H]3O[C@H](C(=O)O)[C@@H](O)[C@H](O)[C@H]3O)c(OC)c2)ccc1O [CURC glucuronide, curcumin glucuronide] |  |  |  |  |  |  |  |  |  |  |  |  |  |  |  | CURC glucuronide plasma level, median [4, 9]: 24.0 ng/mL; CURC glucuronide plasma level, median [4, 10]: 25 ng/mL
